According to doi:10.1101/2024.03.08.584059, “AllTheBacteria: a community resource empowers biology and discovers novel peptide antibiotics” (bioRxiv, 2026):
Entries after “also recorded” stand apart in the source; their conditions may differ. Ends that are not written are not given here. Peptide text beside a SMILES is read from it.

Assays:
A. baumannii ATCC 19606 [1] = experiment: NPN uptake outer membrane permeabilization assay; type: cell-based, Acinetobacter baumannii
Protocol: (§1) We next tested whether ATB peptides act primarily by disrupting the bacterial membrane, we assessed their ability to depolarize the cytoplasmic membrane and permeabilize the outer membrane of A. baumannii ATCC 19606 at their MICs using DiSC3-5 and NPN uptake assays, respectively. […] Fluorescence data were analysed in terms of both maximal signal over time and time-resolved kinetic profiles.
N-phenyl-1-napthylamine (NPN) uptake assay was used to evaluate the ability of the peptides to permeabilize the bacterial outer membrane. Inocula of A. baumannii ATCC 19606 were grown to an OD at 600 nm of 0.4 mL^−1, centrifuged (9,391 ģ at 4 °C for 10 min), washed and resuspended in 5 mmol L^−1 HEPES buffer (pH 7.4) containing 5 mmol L^−1 glucose. The bacterial solution was added to a white 96-well plate ([…] per well) together with […] of NPN at 0.5 mmol L^−1. Consequently, peptides diluted in water were added to each well, and the fluorescence was measured at lex = 350 nm and lem = 420 nm over time for 45 min. The relative fluorescence was calculated using the untreated control (buffer + bacteria + fluorescent dye) and polymyxin B (positive control) as baselines and the following equation was applied to reflect % of difference between the baselines and the sample: Percentagedifference=100*flurescencesample-flurescenceuntreatedcontrol/flurescenceuntreatedcontrol

[2] = tested on: human embryonic kidney (HEK293T) cells; conditions: 24 h
Protocol: The cells were cultured in high-glucose Dulbecco’s modified Eagle’s medium supplemented with 1% penicillin and streptomycin (antibiotics) and 10% fetal bovine serum and grown at 37 °C in a humidified atmosphere containing 5% CO2.
One day prior to the experiment, 100 μL aliquots of human embryonic kidney (HEK293T) cells, at a concentration of 50,000 cells per mL, were seeded into each well of 96-well plates (5,000 cells per well). Following cell attachment, the HEK293T cells were treated with increasing concentrations of peptides (ranging from 8 to 128 μmol L^−1) and incubated for 24 h. After the exposure period, cytotoxicity was assessed using the 3-(4,5-dimethylthiazol-2-yl)-2,5-diphenyltetrazolium bromide (MTT) assay. Specifically, the MTT reagent was prepared at a concentration of 0.5 mg mL^−1 in phenol red-free medium and used to replace the peptide-containing supernatants (100 μL per well). The plates were then incubated for 4 h at 37 °C in a humidified atmosphere with 5% CO2, facilitating the formation of insoluble formazan crystals. These crystals were subsequently dissolved in 0.04 mol L^−1 hydrochloric acid prepared in anhydrous isopropanol. Absorbance was measured at 570 nm using a spectrophotometer to quantify cell viability. All experiments were conducted in triplicate (three biological replicates).
To evaluate the safety profile of the ATB peptides, we measured their cytotoxicity against human embryonic kidney (HEK293T) cells using a 3-(4,5-dimethylthiazol-2-yl)-2,5-diphenyltetrazolium bromide (MTT) viability assay and determined half-maximal cytotoxic concentrations (CC50). […]
index as the ratio CC50 (HEK293T) / MIC against A. baumannii ATCC 19606.

A. baumannii ATCC 19606 [3] = experiment: DiSC3-5 cytoplasmic membrane depolarization assay; type: cell-based, Acinetobacter baumannii; conditions: peptides at their MICs; HEPES buffer pH 7.2, 20 mmol L^−1 glucose, 0.1 mol L^−1 KCl; 60 min; responses remained below Triton X-100; in words
Protocol: as §1
The cytoplasmic membrane depolarization assay was performed using the membrane potential-sensitive dye 3,3’-dipropylthiadicarbocyanine iodide (DiSC3-5). A. baumannii ATCC 19606 in the mid-logarithmic phase were washed and resuspended at 0.05 OD mL^−1 (optical value at 600 nm) in HEPES buffer (pH 7.2) containing 20 mmol L^−1 glucose and 0.1 mol L^−1 KCl. […] Membrane depolarization was then followed by reading changes in the fluorescence (lex = 622 nm, lem = 670 nm) over time for 60 min. The relative fluorescence was calculated using the untreated control (buffer + bacteria + fluorescent dye) and polymyxin B (positive control) as baselines and the following equation was applied to reflect % of difference between the baselines and the sample: Percentagedifference=100*flurescencesample-flurescenceuntreatedcontrol/flurescenceuntreatedcontrol

A. baumannii ATCC 19606 [4] = experiment: microbe, parasite or virus in culture; conditions: Fig. 4 heat map; broth microdilution, LB, 10[5] bacterial cells, 0–64 μmol L^−1, 37 °C, one day, OD600; mode of replicates (triplicate)
Protocol: Figure 4. […] Briefly, 10[5] bacterial cells were incubated with serially diluted peptides (0–64 μmol L^−1) at 37 °C. Bacterial growth was assessed by measuring the optical density at 600 nm in a microplate reader one day post-treatment.

[5] = peptides at their MICs, 5 mmol L^−1 HEPES pH 7.4, 5 mmol L^−1 glucose, 45 min, rank order in words relative to bacterial baseline

Row | Compound | outer membrane permeabilization (NPN fluorescence response) (A. baumannii ATCC 19606 [1]; [5]) | half-maximal cytotoxic concentration (CC50) [2] [µM] | further results
1 | MLKLLKKLQMHLLKKLQKEKLLLNLQKKTLKRKRFRHA-OH [ATB61] | largest NPN responses | 20 to 100 | –
2 | MSLRKKLFVKTMLRVKIKKQSKQRLQKTKRLLQKLKRPWM-OH [ATB3] | – | 20 to 100 | –
3 | MNKIILRVKKMLKNIKLKNNGIRKYNVKMEVKLVYFK-OH [ATB63] | largest NPN responses | – | cytoplasmic membrane depolarization signal (DiSC3-5 fluorescence) (A. baumannii ATCC 19606 [3]): larger depolarization signals
4 | MIMATKLIKKNKFAKELFSRKYKPRVIKPKKGKGSFKRKKR-OH [ATB99] | largest NPN responses | – | –
5 | MKKLKIKKLKIKKLKIKKLKIKKLKSGLRSQ-OH [ATB2] | only minor NPN increases | – | –
6 | MLKLLSIKLKSKKKILRMTLTKLNKWLKTKKKWLRNLKTM-OH [ATB5] | only minor NPN increases | 9 to 12 | Minimal Inhibitory Concentration, A. baumannii ATCC 19606 (-) (A. baumannii ATCC 19606 [4]): 1 µmol/L
7 | MKKLIRNIIYSKLKFLWRWHRPLIIQRRNL-OH [ATB65] | strong outer-membrane permeabilization; also recorded: largest NPN responses | 5 to 6 | cytoplasmic membrane depolarization signal (DiSC3-5 fluorescence) (A. baumannii ATCC 19606 [3]): larger depolarization signals
8 | MTKHAIAAKSLLKKWIISRPLNMKKKSSPFQKIRKMFKRFFK-OH [ATB25] | – | 5 to 6 | –
9 | MKILKKNMHNKILPMVSHKKWMMLIKRLKTLGRIKK-OH [ATB56] | – | 20 to 100 | –
10 | MRSLKRQLLKHKAVKLSIKKWQFLRKLKLVPKRH-OH [ATB18] | – | 9 to 12 | –
11 | CC[C@H](C)CCCCC(=O)N[C@@H](CCN)C(=O)N[C@H](C(=O)N[C@@H](CCN)C(=O)N[C@H]1CCNC(=O)[C@H]([C@@H](C)O)NC(=O)[C@H](CCN)NC(=O)[C@H](CCN)NC(=O)[C@H](CC(C)C)NC(=O)[C@@H](Cc2ccccc2)NC(=O)[C@H](CCN)NC1=O)[C@@H](C)O [Polymyxin B, reference compound] (HELM PEPTIDE1{[CC[C@H](C)CCCCC(=O)[*:2]].[Dab].T.[Dab].[Dab].[Dab].[dF].L.[Dab].[Dab].T}$PEPTIDE1,PEPTIDE1,5:R3-11:R2$$$V2.0; N-terminus assumed; bridges inferred) | – | – | outer membrane permeabilization (NPN fluorescence response) (A. baumannii ATCC 19606 [1]; pH 7.4): remained at or near baseline
12 | MFKTNLSRVSVKRLLIWVVWWLRLKKLKKKAKKFRKK-OH [ATB60] | strong outer-membrane permeabilization; also recorded: largest NPN responses | 9 to 12 | cytoplasmic membrane depolarization signal (DiSC3-5 fluorescence) (A. baumannii ATCC 19606 [3]): larger depolarization signals
13 | MTKLKMYLKKVRKNANNSTKQWKYGLPVRNAKLWNNFQPKK-OH [ATB51] | – | 20 to 100 | –
14 | MRIKLHLRLAFLRFRKKKSLSRLKPISKIRSK-OH [ATB76] | strong outer-membrane permeabilization; also recorded: largest NPN responses | 9 to 12 | –
15 | MSLKKIAKLLANKKVRKIAWMLISHPKFIKMLKNSIKRR-OH [ATB55] | – | 5 to 6 | –
16 | MIKVSKLVVAKKLNLRKKLKKYLKKPKLGKILLL-OH [ATB12] | – | 20 to 100 | –
17 | MLGRKGLRSVWNGRLNVRKRRQNVRLRKNVRRKNVPKPSVWLI-OH [ATB39] | – | 20 to 100 | cytoplasmic membrane depolarization signal (DiSC3-5 fluorescence) (A. baumannii ATCC 19606 [3]): larger depolarization signals
18 | MKLKKLIKFFAFAKGISLLSRRPVRKRTGGLLKKYLAWKYLRRR-OH [ATB6] | – | 20 to 100 | –
19 | MLKGLKKFKWLKKLKRRLMELNELKKFKKLMELRS-OH [ATB13] | – | 9 to 12 | –
